From patent US20120321584A1, “PROCESSES FOR PREPARING AMINE SALTS OF KMUP-3 AND USE THEREOF” (KAOHSIUNG MEDICAL UNIVERSITY, priority 2011, published 2012)
Where a name gives a salt, the structure may show the parent alone.

How the values were obtained:
Type in all cases: cell-based
Conditions in all cases: KMUPs salts 10 μM, 120 min; vehicle (without treatment) = 100 %
[1] = tested on: eNOS; assay: Protein expression of eNOS by optical density after KMUPs salts (Table 2)
Experimental: (§1) Protein extraction and Western blotting analysis. Briefly, after incubation with test agents in an organ bath, isolated beating atrium was frozen and pulverized to a fine powder at the temperature of liquid nitrogen. Atrium powders were then homogenized in protein extraction reagent (Pierce Biotechnology, Inc., Rockford, Ill.) by sonication. The samples were sonicated 10 sec three times and centrifuged at 13,000 rpm at 4° C. for 30 min. The protein concentrations of supernatants were determined by using bovine serum albumin as the standard. The cell extracts were then boiled in a ratio of 4:1 with sample buffer (Tris 100 mM, pH 6.8; glycerol 20%, Sodium dodecyl sulfate (SDS) 4% and bromophenol blue 0.2%). Electrophoresis was performed using 10% SDS-PAGE and transferred to nitrocellulose membranes (Millipore Corp., Billerica, Mass.). The membrane was blocked with Tris-buffered saline (TBS; 20 mM Tris and 137 mM NaCl, pH 7.6) containing 0.1% Tween 20 (TTBS) and 5% nonfat milk at room temperature for 1 h, washed with TTBS, and then incubated overnight at 4° C. in the appropriate primary antibody for PKARI, RhoA, ROCKII, p-CIP-17, CPI-17 and PKG1α1β. […] The intensity of the bands was measured by densitometry. eNOS or phosphorylated eNOS were extracted from cell culture of neonatal myocytes, PA ring and aortic ring (2-3 mm) of rats and measured by Western blotting analysis.

[2] = tested on: PDE-3; assay: Protein expression of PDE-3 by optical density after KMUPs salts (Table 2)
Experimental: as §1

[3] = tested on: ROCKII; assay: Protein expression of ROCKII by optical density after KMUPs salts (Table 2)
Experimental: as §1

[4] = tested on: PDE-4; assay: Protein expression of PDE-4 by optical density after KMUPs salts (Table 2)
Experimental: as §1

[5] = tested on: PDE-5; assay: Protein expression of PDE-5 by optical density after KMUPs salts (Table 2)
Experimental: as §1

## Cn1c(=O)c2c(ncn2CCN2CCN(c3ccc([N+](=O)[O-])cc3)CC2)n(C)c1=O [KMUP-3-HCl]
[1]
  eNOS protein expression, optical density (%): 138 ± 5.2%
[2]
  PDE-3 protein expression, optical density (%): 55 ± 2.5%
[3]
  ROCKII protein expression, optical density (%): 42 ± 2.2%
[4]
  PDE-4 protein expression, optical density (%): 48 ± 2.1%
[5]
  PDE-5 protein expression, optical density (%): 48 ± 1.9%
